In PubChem BioAssay (NCI):
Several values for one entry are separate records, joined by “and”; a condition that tells them apart may be missing. Equal values may be shown once.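 Tested at 5 concentrations; 48 h exposure; 96-well plates; endpoints linearly interpolated, else capped at highest concentration. GI50 marks 50% less growth. At the TGI there is no net growth.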

Assays:
Assay in all cases: growth of human tumour cells (NCI), 48 h
NCI-H226 lung = test system: NCI-H226 lung
EKVX NSCLC = test system: EKVX NSCLC
MOLT-4 leukemia = test system: MOLT-4 leukemia
HCC-2998 colon = test system: HCC-2998 colon
MCF7 breast = test system: MCF7 breast
UACC-257 melanoma = test system: UACC-257 melanoma
OVCAR-8 ovarian = test system: OVCAR-8 ovarian
MALME-3M melanoma = test system: MALME-3M melanoma
SF-295 CNS = test system: SF-295 CNS
HOP-62 NSCLC = test system: HOP-62 NSCLC

SMILES	GI50 (NCI-H226 lung)	TGI (NCI-H226 lung)	GI50 (EKVX NSCLC)	TGI (EKVX NSCLC)	GI50 (MOLT-4 leukemia)	TGI (MOLT-4 leukemia)	GI50 (HCC-2998 colon)	TGI (HCC-2998 colon)	GI50 (MCF7 breast)	TGI (MCF7 breast)	GI50 (UACC-257 melanoma)	TGI (UACC-257 melanoma)	GI50 (OVCAR-8 ovarian)	TGI (OVCAR-8 ovarian)	GI50 (MALME-3M melanoma)	TGI (MALME-3M melanoma)	GI50 (SF-295 CNS)	TGI (SF-295 CNS)	GI50 (HOP-62 NSCLC)	TGI (HOP-62 NSCLC)
CNC(=O)c1ccc(N2CCN(Cc3ccc4nc(C)c(=O)[nH]c4c3F)CC2)c(F)n1	44.9 µM	> 100 µM	81.2 µM	> 100 µM	> 100 µM	> 100 µM	> 100 µM	> 100 µM	65.9 µM	> 100 µM	> 100 µM	> 100 µM	58.7 µM	> 100 µM	> 100 µM	> 100 µM	48.5 µM	> 100 µM	43.7 µM	> 100 µM
COc1ccc2c(c1)C(=O)c1c-2n(CCCN=[N+]=[N-])c(=O)c2cc(OC)c(OC)cc12	> 100 µM	> 100 µM	> 100 µM	> 100 µM	10.6 µM	23.5 µM	13.7 µM	> 100 µM	81.4 µM	> 100 µM	> 100 µM	> 100 µM	> 100 µM	> 100 µM	66.4 µM	> 100 µM	18 µM	> 100 µM	11.6 µM	63.2 µM
C=C1C(O)C2C(=C(CCc3ccccc3)C13CC3)C(=O)C(C)(CO)C2O (stereo not drawn)	> 100 µM	> 100 µM	> 100 µM	> 100 µM	64.1 µM	> 100 µM	> 100 µM	> 100 µM	53.5 µM	> 100 µM	> 100 µM	> 100 µM	> 100 µM	> 100 µM	> 100 µM	> 100 µM	> 100 µM	> 100 µM	> 100 µM	> 100 µM
COC(=O)c1c2c(c[n+]([O-])c1C)C(=O)C=CC2=O	2.12 µM	4.52 µM	1.83 µM	4.25 µM	2.43 µM	6.21 µM	4.25 µM	15.5 µM	1.65 µM	3.46 µM	2.26 µM	5.54 µM	2.93 µM	10.8 µM	1.25 µM	2.51 µM	3.43 µM	13.2 µM	2.6 µM	7.71 µM
FC(F)c1nc2ccccc2n1-c1nc(N2CCOCC2)nc(N2CCOCC2)n1	0.249 µM and 0.452 µM		0.445 µM	4.88 µM	0.347 µM	> 100 µM	0.497 µM and 0.807 µM		0.136 µM and 0.129 µM	> 62.7 µM	0.264 µM and 0.25 µM	3.09 µM and 3.64 µM	0.639 µM and 0.492 µM	> 100 µM	0.178 µM and 0.16 µM	1.65 µM and 0.919 µM	0.237 µM and 0.196 µM	1.63 µM and 1.78 µM	0.495 µM and 1.1 µM	5.36 µM and 15.7 µM
Cc1nc(SCC(=O)Nc2nc(-c3ccc(Cl)cc3)cs2)n(Nc2ccccc2)c1C	3.37 µM	18.8 µM	1.84 µM	12.2 µM	2.51 µM	9.94 µM	10.6 µM	29.5 µM	2.94 µM	11.4 µM	3.07 µM	17 µM	2.71 µM	7.73 µM	10.8 µM	37.6 µM	2.29 µM	16.5 µM	3.06 µM	9.63 µM
C#CCOc1cccc(-c2ncnc3cc(NC(=O)CCl)ccc23)c1	1.42 µM	5.54 µM	2.31 µM	7.64 µM	0.043 µM	> 100 µM	1.09 µM	2.75 µM	0.0764 µM	1.75 µM	1.64 µM	5.19 µM	0.168 µM	6.59 µM	1.28 µM	3.59 µM	2.44 µM	9.25 µM	2.36 µM	7.18 µM
Cc1cnc(NC(=O)Nc2cc(Br)c(C)cc2OC[C@@H]2CNCCO2)cn1	5.84 µM	> 10 µM and 20.8 µM	3.22 µM and 3.24 µM	> 10 µM and 15.9 µM	0.445 µM and 0.368 µM	> 10 µM and 3.9 µM	0.468 µM and 0.493 µM	> 10 µM and 5.28 µM	0.431 µM and 0.418 µM	> 10 µM and 6.15 µM	1.59 µM and 2.44 µM	3.59 µM and 8.37 µM	0.666 µM and 0.664 µM	> 10 µM and 12.8 µM	1.63 µM and 1.94 µM	> 10 µM and 6.55 µM	0.326 µM and 0.263 µM	> 10 µM and 3.02 µM	0.539 µM and 1.65 µM	> 10 µM and 14.2 µM
CC(C)CCC(=O)c1ccoc1		> 100 µM		> 100 µM		> 100 µM		> 100 µM		> 100 µM		> 100 µM		> 100 µM		> 100 µM		> 100 µM		> 100 µM
COc1cccc(-c2nc3sccn3c2-c2ccnc(NCCCNS(=O)(=O)c3cccc(F)c3)c2)c1	2.38 µM	8.38 µM	2.99 µM	> 100 µM	1.84 µM	5.46 µM	5.12 µM	> 100 µM	2.49 µM	> 100 µM	2.89 µM	9.68 µM	2.42 µM	18.9 µM	2.23 µM	7.24 µM	2.37 µM	7.48 µM	2.83 µM	29.1 µM
CC(=O)O[C@H]1CC[C@@]2(C)C(=CC[C@H]3[C@@H]4CC[C@H](c5cc(C(F)(F)F)n(C(C)=O)n5)[C@@]4(C)CC[C@@H]32)C1		20.8 µM		21.3 µM		8.39 µM		27.3 µM		18.7 µM		13.9 µM		24.8 µM		> 52.8 µM		17 µM		21.2 µM
O=S(=O)(Nc1ccccc1Cl)c1ccc(-c2cnc(C3CC3)o2)cc1	4.84 µM	> 68.4 µM	4.35 µM	> 89.1 µM	0.71 µM	> 63.6 µM	2.54 µM	33.3 µM	0.284 µM	> 100 µM	19.2 µM	75 µM	1.22 µM	> 100 µM	0.472 µM	44.3 µM	0.438 µM	15.3 µM	0.501 µM	> 100 µM
Cc1cc(S(=O)(=O)Nc2nc3cscc3c(=O)n2Cc2ccccc2)c(S)cc1Cl	60.1 µM	> 100 µM	23.8 µM	> 100 µM	3.94 µM	32.5 µM	18.9 µM	68.5 µM	39.1 µM	> 100 µM	> 100 µM	> 100 µM	55.7 µM	> 100 µM	28.7 µM	> 100 µM	23.7 µM	> 100 µM	16.5 µM	39.3 µM
